From ChEMBL document CHEMBL5370599, “Discovery of a 53BP1 Small Molecule Antagonist Using a Focused DNA-Encoded Library Screen” (J Med Chem, 2023)

Columns and labels:
[1] = target: T1, E3 ubiquitin-protein ligase UHRF1 (Homo sapiens, UniProt Q96T88); test: Displacement of Biotin-p53K381acK382me2 from UHRF1 tandem tudor domain (unknown origin) by TR-FRET assay
T1 sequence (Q96T88 whole entry): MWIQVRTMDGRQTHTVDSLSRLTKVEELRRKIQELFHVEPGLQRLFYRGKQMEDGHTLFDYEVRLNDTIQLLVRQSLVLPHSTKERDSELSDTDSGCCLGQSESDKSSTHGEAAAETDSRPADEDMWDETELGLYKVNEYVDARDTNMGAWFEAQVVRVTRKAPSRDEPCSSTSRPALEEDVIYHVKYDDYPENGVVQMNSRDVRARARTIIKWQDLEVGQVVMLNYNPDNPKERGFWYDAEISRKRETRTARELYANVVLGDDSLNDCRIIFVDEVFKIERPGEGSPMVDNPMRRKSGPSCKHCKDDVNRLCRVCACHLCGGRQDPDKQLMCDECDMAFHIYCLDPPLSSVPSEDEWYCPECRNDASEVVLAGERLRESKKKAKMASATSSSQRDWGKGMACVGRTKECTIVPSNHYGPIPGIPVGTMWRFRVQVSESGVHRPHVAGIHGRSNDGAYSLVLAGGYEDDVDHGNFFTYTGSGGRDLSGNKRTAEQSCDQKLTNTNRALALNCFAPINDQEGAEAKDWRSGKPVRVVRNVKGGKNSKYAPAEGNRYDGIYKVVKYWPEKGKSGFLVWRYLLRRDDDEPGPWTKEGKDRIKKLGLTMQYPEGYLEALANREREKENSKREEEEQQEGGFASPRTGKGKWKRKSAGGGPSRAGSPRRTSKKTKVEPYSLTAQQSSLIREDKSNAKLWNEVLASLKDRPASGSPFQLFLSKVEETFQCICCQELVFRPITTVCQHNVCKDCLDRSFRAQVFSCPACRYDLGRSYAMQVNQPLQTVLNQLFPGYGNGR

TP53-binding protein 1 [2] = target: T2, TP53-binding protein 1 (Homo sapiens, UniProt Q12888); test: Antagonist activity at nanoluc-tagged 53BP1 tandem tudor domain (unknown origin) transfected in HEK293T cells assessed as inhibition of 53BP1-H4 peptide interaction by nanoBRET assay; assay type: cell-based
[3] = target: Histone-lysine N-methyltransferase SETDB1 (Homo sapiens, UniProt Q15047); test: Displacement of Biotin-p53K381acK382me2 from SETDB1 tandem tudor domain (unknown origin) by TR-FRET assay
HEK-293T [4] = test: Cytotoxicity against HEK293T cells assessed as reduction in cell viability measured upto 200 uM by celltiterglo 2.0 assay; assay type: toxicity, cell-based; settings: human
TERT-RPE1 [5] = test: Cytotoxicity against human RPE-1 cells assessed as reduction in cell viability measured upto 200 uM by celltiterglo 2.0 assay; assay type: toxicity, cell-based; settings: tert-rpe1, 200 µM
TP53-binding protein 1 [6] = target: T2, TP53-binding protein 1; test: Binding affinity to N-terminal his6-tagged 53BP1 (1484 to 1603 residues) (unknown origin) expressed in Rosetta2 BL21 (DE3) pLysS competent cells assessed as dissociation constant by SPR analysis
[7] = target: T3, Chromodomain Y-like protein 2 (Homo sapiens, UniProt Q8N8U2); test: Displacement of Biotin-p53K381acK382me2 from CDYL2 (unknown origin) by TR-FRET assay
T3 sequence (Q8N8U2 whole entry): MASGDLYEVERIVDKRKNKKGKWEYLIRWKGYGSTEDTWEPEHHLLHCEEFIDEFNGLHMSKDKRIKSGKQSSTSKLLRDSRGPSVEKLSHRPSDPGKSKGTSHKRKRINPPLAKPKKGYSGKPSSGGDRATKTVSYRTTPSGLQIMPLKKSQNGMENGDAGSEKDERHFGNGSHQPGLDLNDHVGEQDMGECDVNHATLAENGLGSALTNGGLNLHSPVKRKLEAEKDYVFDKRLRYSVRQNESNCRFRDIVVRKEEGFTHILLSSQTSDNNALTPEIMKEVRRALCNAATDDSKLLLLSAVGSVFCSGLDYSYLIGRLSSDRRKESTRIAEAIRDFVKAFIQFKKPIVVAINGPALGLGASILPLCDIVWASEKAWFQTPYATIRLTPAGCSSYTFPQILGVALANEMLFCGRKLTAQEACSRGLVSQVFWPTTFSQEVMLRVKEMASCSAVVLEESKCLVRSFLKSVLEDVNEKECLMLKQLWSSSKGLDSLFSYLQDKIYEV

PHD finger protein 19 = PHD finger protein 19 (Homo sapiens, UniProt Q5T6S3); test: Displacement of Biotin-p53K381acK382me2 from PHF19 (unknown origin) by TR-FRET assay
TP53-binding protein 1 [8] = target: T2, TP53-binding protein 1; test: Displacement of Biotin-p53K381acK382me2 from N-terminal his6-tagged 53BP1 (1484 to 1603 residues) (unknown origin) expressed in Rosetta2 BL21 (DE3) pLysS competent cells by TR-FRET assay; assay type: single protein
M-phase phosphoprotein 8 = target: T4, M-phase phosphoprotein 8 (Homo sapiens, UniProt Q99549); test: Displacement of Biotin-p53K381acK382me2 from MPP8 chromodomain (unknown origin) by TR-FRET assay
T4 sequence (Q99549 whole entry): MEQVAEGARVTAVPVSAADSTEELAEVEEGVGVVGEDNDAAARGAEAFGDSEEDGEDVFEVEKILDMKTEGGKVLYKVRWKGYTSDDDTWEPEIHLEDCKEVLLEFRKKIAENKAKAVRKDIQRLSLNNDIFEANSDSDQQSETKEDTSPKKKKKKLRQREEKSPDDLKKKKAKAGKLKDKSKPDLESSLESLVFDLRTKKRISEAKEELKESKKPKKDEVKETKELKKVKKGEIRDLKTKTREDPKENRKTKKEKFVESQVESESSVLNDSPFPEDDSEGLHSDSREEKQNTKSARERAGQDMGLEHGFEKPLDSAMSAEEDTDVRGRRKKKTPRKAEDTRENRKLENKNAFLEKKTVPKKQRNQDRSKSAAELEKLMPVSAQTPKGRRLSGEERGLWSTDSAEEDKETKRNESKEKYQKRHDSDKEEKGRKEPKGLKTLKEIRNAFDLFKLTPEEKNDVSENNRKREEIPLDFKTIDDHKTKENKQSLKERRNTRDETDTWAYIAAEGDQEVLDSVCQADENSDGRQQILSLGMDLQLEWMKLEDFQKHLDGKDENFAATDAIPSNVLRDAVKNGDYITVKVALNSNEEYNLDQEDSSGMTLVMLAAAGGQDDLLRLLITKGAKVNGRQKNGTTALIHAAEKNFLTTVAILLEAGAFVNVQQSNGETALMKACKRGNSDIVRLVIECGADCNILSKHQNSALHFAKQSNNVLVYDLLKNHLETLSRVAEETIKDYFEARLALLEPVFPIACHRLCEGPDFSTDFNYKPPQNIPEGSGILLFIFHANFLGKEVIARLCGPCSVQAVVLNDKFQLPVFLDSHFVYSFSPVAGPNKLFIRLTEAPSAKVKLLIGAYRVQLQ

TP53-binding protein 1 [9] = target: T2, TP53-binding protein 1; settings: filed as antagonist
Description: Binding affinity to N-terminal his6-tagged 53BP1 tandem tudor domain (1484 to 1603 residues) (unknown origin) expressed in Rosetta2 BL21 (DE3) pLysS competent cells assessed as change in enthalpy by differential scanning fluorimetry analysis

[10] = Kinetic solubility of compound by CLND analysis; assay type: physicochemical
[11] = Displacement of Biotin-p53K381acK382me2 from KDM7B (unknown origin) by TR-FRET assay; set-up: species or system Homo sapiens
TP53-binding protein 1 [12] = target: T2, TP53-binding protein 1; test: Binding affinity to N-terminal his6-tagged 53BP1 tandem tudor domain (1484 to 1603 residues) (unknown origin) expressed in Rosetta2 BL21 (DE3) pLysS competent cells assessed as dissociation constant by ITC analysis
[13] = target: T5, Chromobox protein homolog 2 (Homo sapiens, UniProt Q14781); test: Displacement of Biotin-p53K381acK382me2 from CBX2 chromodomain (unknown origin) by TR-FRET assay
T5 sequence (Q14781 whole entry): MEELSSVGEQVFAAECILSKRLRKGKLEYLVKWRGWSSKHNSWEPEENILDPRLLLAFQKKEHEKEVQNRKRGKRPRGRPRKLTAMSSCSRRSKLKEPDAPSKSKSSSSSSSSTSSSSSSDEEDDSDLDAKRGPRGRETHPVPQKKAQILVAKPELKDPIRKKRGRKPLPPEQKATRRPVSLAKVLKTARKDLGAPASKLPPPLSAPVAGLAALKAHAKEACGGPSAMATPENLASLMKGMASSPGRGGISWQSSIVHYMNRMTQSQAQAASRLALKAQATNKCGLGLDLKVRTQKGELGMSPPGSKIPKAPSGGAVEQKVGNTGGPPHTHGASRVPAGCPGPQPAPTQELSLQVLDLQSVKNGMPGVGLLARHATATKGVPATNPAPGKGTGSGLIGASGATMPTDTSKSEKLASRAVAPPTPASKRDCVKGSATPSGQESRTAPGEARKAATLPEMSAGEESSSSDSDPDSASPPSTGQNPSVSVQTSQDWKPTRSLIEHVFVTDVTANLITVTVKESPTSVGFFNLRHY

HEK-293T [14] = test: Cytotoxicity against HEK293T cells assessed as reduction in cell viability by celltiterglo 2.0 assay; assay type: toxicity, cell-based; settings: human
TERT-RPE1 [15] = test: Cytotoxicity against human RPE-1 cells assessed as reduction in cell viability by celltiterglo 2.0 assay; assay type: toxicity, cell-based

T2 sequence (Q12888 whole entry, the tested form may be a part): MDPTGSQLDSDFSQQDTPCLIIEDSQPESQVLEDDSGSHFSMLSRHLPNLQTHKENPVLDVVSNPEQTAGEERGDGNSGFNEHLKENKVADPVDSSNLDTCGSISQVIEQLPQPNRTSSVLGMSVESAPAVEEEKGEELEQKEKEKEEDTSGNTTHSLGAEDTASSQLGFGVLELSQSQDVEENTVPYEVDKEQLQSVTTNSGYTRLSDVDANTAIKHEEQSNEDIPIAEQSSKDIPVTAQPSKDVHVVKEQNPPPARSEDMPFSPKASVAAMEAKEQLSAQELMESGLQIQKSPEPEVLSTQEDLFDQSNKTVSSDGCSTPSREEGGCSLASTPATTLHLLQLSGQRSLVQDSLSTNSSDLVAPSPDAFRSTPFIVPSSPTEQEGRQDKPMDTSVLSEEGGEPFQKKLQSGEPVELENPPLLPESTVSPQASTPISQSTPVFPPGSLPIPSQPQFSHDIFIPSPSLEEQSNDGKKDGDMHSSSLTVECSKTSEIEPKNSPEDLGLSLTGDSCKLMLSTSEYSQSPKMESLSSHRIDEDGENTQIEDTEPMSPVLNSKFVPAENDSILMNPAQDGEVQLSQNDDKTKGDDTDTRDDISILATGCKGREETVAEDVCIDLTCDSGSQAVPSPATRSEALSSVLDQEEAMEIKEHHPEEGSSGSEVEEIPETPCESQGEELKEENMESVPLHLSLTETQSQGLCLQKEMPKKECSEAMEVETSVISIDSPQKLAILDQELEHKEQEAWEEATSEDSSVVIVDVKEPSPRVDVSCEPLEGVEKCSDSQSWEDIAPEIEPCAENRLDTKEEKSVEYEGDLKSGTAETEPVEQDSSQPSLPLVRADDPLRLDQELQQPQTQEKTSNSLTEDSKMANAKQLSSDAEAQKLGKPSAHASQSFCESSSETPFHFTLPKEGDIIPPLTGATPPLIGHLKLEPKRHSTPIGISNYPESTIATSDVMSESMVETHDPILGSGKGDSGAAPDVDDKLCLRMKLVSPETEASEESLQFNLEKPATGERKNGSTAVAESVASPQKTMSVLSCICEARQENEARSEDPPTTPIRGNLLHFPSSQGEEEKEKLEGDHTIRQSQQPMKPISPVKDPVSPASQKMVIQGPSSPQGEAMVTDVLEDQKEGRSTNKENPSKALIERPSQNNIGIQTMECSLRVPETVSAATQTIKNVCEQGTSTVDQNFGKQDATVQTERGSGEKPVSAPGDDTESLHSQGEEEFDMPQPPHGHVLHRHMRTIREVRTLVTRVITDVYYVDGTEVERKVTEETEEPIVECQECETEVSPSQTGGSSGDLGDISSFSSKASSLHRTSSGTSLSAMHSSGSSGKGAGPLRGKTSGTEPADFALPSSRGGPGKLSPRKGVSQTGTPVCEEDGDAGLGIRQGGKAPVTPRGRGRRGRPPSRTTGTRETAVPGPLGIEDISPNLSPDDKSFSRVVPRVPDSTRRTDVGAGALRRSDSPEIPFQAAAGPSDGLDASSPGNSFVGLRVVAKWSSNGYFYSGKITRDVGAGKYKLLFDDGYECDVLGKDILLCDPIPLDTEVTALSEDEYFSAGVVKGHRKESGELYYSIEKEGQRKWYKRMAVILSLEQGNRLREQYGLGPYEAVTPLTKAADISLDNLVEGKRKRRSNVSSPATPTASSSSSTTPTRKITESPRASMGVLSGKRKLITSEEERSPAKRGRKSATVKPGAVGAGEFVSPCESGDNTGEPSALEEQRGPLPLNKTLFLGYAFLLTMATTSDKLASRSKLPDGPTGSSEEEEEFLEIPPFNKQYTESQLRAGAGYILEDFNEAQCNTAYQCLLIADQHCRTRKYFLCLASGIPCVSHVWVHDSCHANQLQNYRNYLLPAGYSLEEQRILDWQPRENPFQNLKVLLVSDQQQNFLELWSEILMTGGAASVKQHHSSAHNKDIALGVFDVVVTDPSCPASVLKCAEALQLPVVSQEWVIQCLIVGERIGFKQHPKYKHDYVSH

IC50 [1] | IC50 (TP53-binding protein 1 [2]) | IC50 [3] | Kd (TP53-binding protein 1 [6]) | IC50 [7] | IC50 (PHD finger protein 19) | IC50 (TP53-binding protein 1 [8]) | IC50 (M-phase phosphoprotein 8) | deltaH (TP53-binding protein 1 [9]) | Kinetic_solubility [10] | IC50 [11] | Kd (TP53-binding protein 1 [12]) | IC50 [13] | Structure (SMILES) | Activity (HEK-293T [4]) | Activity (TERT-RPE1 [5]) | Activity (HEK-293T [14]) | Activity (TERT-RPE1 [15])
> 100 µM | 8.5 µM | > 100 µM | 790 nM | > 100 µM | > 100 µM | 470 nM | > 100 µM | -9.2 kcal/mol | 194 µM | > 100 µM | 850 nM | > 100 µM | CN1CCN(c2ccnc(C(=O)N3CCC[C@H](C(=O)Nc4cccc(-c5ccc(C(N)=O)cc5)c4)C3)c2)CC1 | Non-Toxic | Non-Toxic | – | –
– | – | – | – | – | – | – | – | – | – | – | – | – | O=C1NCc2ccc(-c3cccc(NC(=O)[C@H]4CCCN(C(=O)c5cc(N6CCCCC6)ccn5)C4)c3)cc21 | – | – | Toxic | Toxic
> 100 µM | 6.9 µM | > 100 µM | 170 nM | > 100 µM | > 100 µM | 460 nM | > 100 µM | -5.8 kcal/mol | 200 µM | > 100 µM | 410 nM | > 100 µM | CN1CCN(c2ccnc(C(=O)N3CCC[C@H](C(=O)Nc4cccc(-c5ccc6c(c5)C(=O)NC6)c4)C3)c2)CC1 | Non-Toxic | Non-Toxic | – | –
